Reference: EP0888055B1, “HERBICIDAL COMPOSITION AND METHOD OF WEED CONTROL” (Novartis AG, priority 1996, dated 1997)

Columns and labels:
Maize [1] = assay: Pre-emergence test (Example B2), tolerance of useful plant; assay type: in vivo
From the text: (§1) The test plants are sown in plastics pots in standard soil. Directly after sowing the test compounds are applied by spraying, separately or in admixture, in the form of an aqueous suspension of the test compounds (Formulation Example F8, c) and d)) or in the form of an emulsion concentrate (Formulation Example F1, d)) in 500 l of water/ha. The rates of application conform to the optimum concentrations ascertained under field conditions and greenhouse conditions. The test plants are then cultivated in the greenhouse under optimum conditions. After 34 days' (Tables B2 to B5) and 41 days' (Table B6) test duration, the test is evaluated (% action, 100 % = plants have died, 0 % = no phytotoxic action). From 61 to 80 % (especially from 81 to 100 %) phytotoxicity indicates good to very good herbicidal action in weeds; from 0 to 15 % (especially from 0 to 5 %) phytotoxicity indicates good to very good tolerance in useful plants.

Echinochloa = assay: Post-emergence test (Example B1); assay type: in vivo; conditions: 24 days
From the text: (§2) The expected herbicidal action E for a given combination of two herbicides can be calculated as follows (see COLBY, S.R., "Calculating synergistic and antagonistic response of herbicide combinations", Weeds 15, pages 20-22, 1967): E = X +(Y • (100 - X))/(100) [formula]
(§3) In the above formula: X = percentage growth inhibition in the case of treatment with the compound of formula A at a rate of application of p kg per hectare compared with the untreated control (= 0 %). Y = percentage herbicidal action in the case of treatment with one of the mixing partners at a rate of application of q kg per hectare compared with the untreated control. E = Expected herbicidal action (percentage herbicidal action compared with the untreated control) after treatment with the compounds of formulae A and the mixing partners at a rate of application of p + q kg of active ingredient per hectare.
(§4) The test plant seeds are grown to the 4- to 6-leaf stage under greenhouse conditions in plastics pots. The culture substrate used is a standard soil. At the 4- to 6-leaf stage the herbicides are applied separately and in admixture to the test plants. The test compounds are applied in the form of an aqueous suspension (Formulation Example F8, c)) in 500 l of water/ha. The rates of application conform to the optimum concentrations ascertained under field conditions and greenhouse conditions. Evaluation of the tests is carried out after 24 days. The following linear scale is used as a measure (% action): • 100 % = plants have died • 50 % = moderate action • 0 % = no phytotoxic action (as untreated control).
(§5) Test plants: brachiaria, cyperus, digitaria, echinochloa, panicum.

Panicum = assay: Post-emergence test (Example B1); assay type: in vivo; conditions: 24 days
From the text: as §2, §3, §4, §5

Brachiaria [2] = assay: Post-emergence test (Example B1); assay type: in vivo; conditions: 24 days
From the text: as §2, §3, §4, §5

Digitaria = assay: Post-emergence test (Example B1); assay type: in vivo; conditions: 24 days
From the text: as §2, §3, §4, §5

Brachiaria [3] = assay: Pre-emergence test (Example B2); assay type: in vivo; conditions: 60 g active ingredient/ha, 34 days
From the text: as §2, §3, §1

Cyperus = assay: Post-emergence test (Example B1); assay type: in vivo; conditions: 24 days
From the text: as §2
In the above formula: X = percentage growth inhibition in the case of treatment with the compound of formula A at a rate of application of p kg per hectare compared with the untreated control (= 0 %). Y = percentage herbicidal action in the case of treatment with one of the mixing partners at a rate of application of q kg per hectare compared with the untreated control.
The test plant seeds are grown to the 4- to 6-leaf stage under greenhouse conditions in plastics pots. The culture substrate used is a standard soil. At the 4- to 6-leaf stage the herbicides are applied separately and in admixture to the test plants. The test compounds are applied in the form of an aqueous suspension (Formulation Example F8, c)) in 500 l of water/ha. The rates of application conform to the optimum concentrations ascertained under field conditions and greenhouse conditions. Evaluation of the tests is carried out after 24 days.
as §5

Maize [4] = assay: Breakdown in treated useful plants; conditions: after application of the compositions; especially maize; compared with metolachlor
Sorghum bic. = assay: Pre-emergence test (Example B2); assay type: in vivo, Sorghum bicolor; conditions: 8 g active ingredient/ha, 41 days
From the text: as §2, §3
The test plants are sown in plastics pots in standard soil. Directly after sowing the test compounds are applied by spraying, separately or in admixture, in the form of an aqueous suspension of the test compounds (Formulation Example F8, c) and d)) or in the form of an emulsion concentrate (Formulation Example F1, d)) in 500 l of water/ha. […] After 34 days' (Tables B2 to B5) and 41 days' (Table B6) test duration, the test is evaluated (% action, 100 % = plants have died, 0 % = no phytotoxic action). […]

Sesbania = assay: Pre-emergence test (Example B2); assay type: in vivo; conditions: 60 g active ingredient/ha, 34 days
From the text: as §2, §3, §1
(§6) Test plants: abutilon, bidens, euphorbia, ipomoea, sesbamia, xanthium, rottboellia, sida, Sorghum bicolor.

Abutilon = assay: Pre-emergence test (Example B2); assay type: in vivo
From the text: as §2, §3, §1, §6

Ipomoea = assay: Pre-emergence test (Example B2); assay type: in vivo
From the text: as §2, §3, §1, §6

Xanthium = assay: Pre-emergence test (Example B2); assay type: in vivo; conditions: 34 days
From the text: as §2, §3, §1, §6

Sida = assay: Pre-emergence test (Example B2); assay type: in vivo
From the text: as §2, §3, §1, §6

Rottboellia = assay: Pre-emergence test (Example B2); assay type: in vivo
From the text: as §2, §3, §1, §6

Euphorbia = assay: Pre-emergence test (Example B2); assay type: in vivo
From the text: as §2, §3, §1, §6

Bidens = assay: Pre-emergence test (Example B2); assay type: in vivo; conditions: 34 days
From the text: as §2, §3, §1, §6

[5] = 8 g active ingredient/ha, 41 days
[6] = 15 g active ingredient/ha, 34 days
[7] = 15 g active ingredient/ha, 41 days
[8] = 30 g active ingredient/ha, 34 days
[9] = 60 g active ingredient/ha, 34 days
[10] = 60 g active ingredient/ha, 41 days
[11] = 30 g active ingredient/ha, 41 days

C=CCOC(=O)C(C)(C)OC(=O)c1cc(-n2c(=O)cc(C(F)(F)F)n(C)c2=O)ccc1Cl [A]
85%: Herbicidal activity, Weed: Digitaria (Digitaria; 50 g active ingredient/ha) | Herbicidal activity, Weed: Euphorbia (Euphorbia; [7])
10%: Herbicidal activity, Useful plant: Maize (Maize [1]; [8]) | Herbicidal activity, Useful plant: Maize (Maize [1]; [9]) | Herbicidal activity, Weed: Brachiaria (Brachiaria [2]; 100 g active ingredient/ha)
30%: Herbicidal activity, Weed: Ipomoea (Ipomoea; [9]) | Herbicidal activity, Weed: Rottboellia (Rottboellia; [9]) | Herbicidal activity, Weed: Bidens (Bidens; 30 g active ingredient/ha)
80%: Herbicidal activity, Weed: Abutilon (Abutilon; [7]) | Herbicidal activity, Weed: Sida (Sida; [6]) | Herbicidal activity, Weed: Rottboellia (Rottboellia; [11])
20%: Herbicidal activity, Weed: Abutilon (Abutilon; [6]) | Herbicidal activity, Weed: Ipomoea (Ipomoea; [8]) | Herbicidal activity, Weed: Xanthium (Xanthium; 60 g active ingredient/ha) | Herbicidal activity, Weed: Bidens (Bidens; 15 g active ingredient/ha)
45%: Herbicidal activity, Weed: Echinochloa (Echinochloa; 200 g active ingredient/ha)
70%: Herbicidal activity, Weed: Panicum (Panicum; 200 g active ingredient/ha) | Herbicidal activity, Weed: Rottboellia (Rottboellia; [10])
50%: Herbicidal activity, Weed: Panicum (Panicum; 50 g active ingredient/ha) | Herbicidal activity, Weed: Cyperus (Cyperus; 50 g active ingredient/ha) | Herbicidal activity, Weed: Sesbania (Sesbania) | Herbicidal activity, Weed: Abutilon (Abutilon; [5])
40%: Herbicidal activity, Useful plant: Maize (Maize [1]; [10]) | Herbicidal activity, Weed: Abutilon (Abutilon; [8]) | Herbicidal activity, Weed: Sida (Sida; [5])
60%: Herbicidal activity, Weed: Brachiaria (Brachiaria [3]) | Herbicidal activity, Weed: Cyperus (Cyperus; 100 g active ingredient/ha)
90%: Herbicidal activity, Weed: Digitaria (Digitaria; 100 g active ingredient/ha) | Herbicidal activity, Weed: Digitaria (Digitaria; 200 g active ingredient/ha) | Herbicidal activity, Weed: Euphorbia (Euphorbia; [8]) | Herbicidal activity, Weed: Bidens (Bidens; 60 g active ingredient/ha)
0%: Herbicidal activity, Useful plant: Maize (Maize [1]; [5]) | Herbicidal activity, Useful plant: Maize (Maize [1]; [6]) | Herbicidal activity, Useful plant: Maize (Maize [1]; [7]) | Herbicidal activity, Weed: Sorghum bic. (Sorghum bic.) | Herbicidal activity, Weed: Ipomoea (Ipomoea; [11]) | Herbicidal activity, Weed: Xanthium (Xanthium; 15 g active ingredient/ha) | Herbicidal activity, Weed: Xanthium (Xanthium; 30 g active ingredient/ha) | Herbicidal activity, Weed: Euphorbia (Euphorbia; [6])
broken down more rapidly: breakdown in the useful plants treated (Maize [4])
15%: Herbicidal activity, Weed: Echinochloa (Echinochloa; 100 g active ingredient/ha) | Herbicidal activity, Weed: Brachiaria (Brachiaria [2]; 200 g active ingredient/ha)
